In PMC10434227 (Microbiology Spectrum, 2023):
Counter-ions that a name gives are not always drawn. Like-named read-outs stand apart in the source and are kept apart here.

Key:
rVACV Nluc/Scarlet [1] = assay: microbe, parasite or virus in culture; format: cell-based, vaccinia virus (VACV)
[2] = tested on: MPXV USA-2003 (NR-2500) clade II; assay: microbe, parasite or virus in culture; format: cell-based, monkeypox virus (MPXV)
rVACV Nluc/GFP [3] = assay: microbe, parasite or virus in culture; format: cell-based, vaccinia virus (VACV)
in vitro [4] = conditions: human
in vitro [5] = conditions: human; remark: listed apart in the source
A549 cells [6] = tested on: A549 cells
A549 cells [7] = tested on: A549 cells; remark: listed apart in the source
rVACV Nluc/Scarlet [8] = format: cell-based, vaccinia virus (VACV)
rVACV Nluc/GFP [9] = format: cell-based, vaccinia virus (VACV)
MPXV = format: cell-based, monkeypox virus (MPXV)
[10] = Orthopoxvirus vaccinia, A549, read-out: EC50 FP (Scarlet fluorescence)
[11] = Orthopoxvirus vaccinia, A549, read-out: EC50 Nluc
[12] = read-out: EC50 FP (Scarlet fluorescence)
[13] = Monkeypox virus, A549, read-out: EC50 against MPXV
[14] = Orthopoxvirus vaccinia, A549, read-out: EC50 FP (GFP fluorescence)

Row | SMILES | EC50 (rVACV Nluc/Scarlet [1]; [10]) [nM] | EC50 (rVACV Nluc/Scarlet [1]; [11]) [nM] | EC50 (rVACV Nluc/Scarlet [1]; [12]) [nM] | EC50 [2, 13] [nM] | EC50 (rVACV Nluc/GFP [3]; [14]) [nM] | EC50 (rVACV Nluc/GFP [3]; [11]) [nM] | CC50 (in vitro [4]) [nM] | EC50 ([2]; read-out: EC50 against MPXV) [nM] | CC50 (in vitro [5]) [nM] | EC50 (rVACV Nluc/GFP [3]; read-out: EC50 Nluc) [nM] | EC50 (rVACV Nluc/Scarlet [1]; read-out: EC50 Nluc) [nM] | CC50 (A549 cells [6]) [nM] | CC50 (A549 cells [7]) [nM] | EC50 (rVACV Nluc/GFP [3]; read-out: EC50 FP (GFP fluorescence)) [nM] | inhibitory activity against MPXV (in words) [2] | extracellular viral titers (rVACV Nluc/Scarlet [8]) | extracellular viral titers (rVACV Nluc/GFP [9]) | extracellular viral titers (MPXV)
1 | FC(F)(F)c1ccc(/C=C/c2nc(COc3ccc(CCCCn4ccnn4)cc3)co2)cc1 [Mubritinib, mubritinib] | 50 | 37 | 93 | 38 | 65 | 33 |  |  |  |  |  |  |  |  |  |  |  | 
2 | COc1c(C)c2c(c(O)c1C/C=C(\C)CCC(=O)OCCN1CCOCC1)C(=O)OC2 [Mycophenolate mofetil, mycophenolate mofetil] | 1200 | 1040 |  | 1060 | 870 | 800 | > 150000 | 1960 | > 150000 | 930 |  |  |  |  |  |  |  | 
3 | COc1c(C)c2c(c(O)c1C/C=C(\C)CCC(=O)O)C(=O)OC2 [Mycophenolic acid, mycophenolic acid] | 460 | 490 |  | 710 | 590 | 430 | > 150000 |  | > 150000 |  |  |  |  |  |  |  |  | 
4 | CC[C@@H](C(=O)O)[C@@H]1O[C@@H]([C@@H](C)[C@H](O)[C@H](C)C(=O)[C@H](CC)[C@H]2O[C@]3(C=C[C@@H](O)[C@]4(CC[C@@](C)([C@H]5CC[C@](O)(CC)[C@H](C)O5)O4)O3)[C@H](C)C[C@@H]2C)[C@@H](C)C[C@@H]1C [Narasin, narasin sodium salt] | 20 | 20 |  | 50 | 10 | 30 |  |  |  |  |  |  |  |  |  |  |  | 
5 | NCC(=O)Nc1ccc(-n2nc(C(F)(F)F)cc2-c2ccc3c(ccc4ccccc43)c2)cc1 [Osu-03012, OSU-03012] | 2320 | 2590 |  | 4390 | 3290 | 2950 |  |  |  | 2650 |  |  |  |  |  |  |  | 
6 | NC(=O)c1[nH]nc([C@@H]2O[C@H](CO)[C@@H](O)[C@H]2O)c1O [Pyrazofurin, pyrazofurin] | 370 | 110 | 270 | 3400 | 530 | 240 | > 50000 |  | > 50000 |  |  |  |  |  |  |  |  | 
7 | C=C(C)[C@H]1Cc2c(ccc3c2O[C@@H]2COc4cc(OC)c(OC)cc4[C@@H]2C3=O)O1 [Rotenone, rotenone] | 15 | 8 |  | 7 | 10 | 7 |  |  |  |  |  |  |  |  |  |  |  | 
8 | Fc1ccc(CNc2ncnc3ccc(F)cc23)cc1 [Spautin-1, spautin-1] |  |  | 6780 |  |  |  |  | 3210 |  | 2800 | 3040 | > 50000 | 8000 | 4430 |  |  |  | 
9 | O=C(NN1C(=O)[C@@H]2[C@@H]3C=C[C@@H]([C@H]4C[C@@H]34)[C@@H]2C1=O)c1ccc(C(F)(F)F)cc1 [Tecovirimat, tecovirimat] |  | 80 |  | 120 |  |  | > 50000 | 150 | > 50000 |  | 70 |  |  |  | potently inhibited MPXV | dose-dependent decrease | dose-dependent decrease | dose-dependent decrease
10 | O=C1c2ccccc2-n2c1nc1ccccc1c2=O [Tryptanthrin, tryptanthrin] | 1390 | 870 | 1380 | 4790 | 1340 | 810 |  | 4780 |  |  | 970 |  |  |  |  |  |  | 
11 | CC(C)[C@@H]1NC(=O)[C@H](C)OC(=O)[C@@H](C(C)C)NC(=O)[C@@H](C(C)C)OC(=O)[C@H](C(C)C)NC(=O)[C@H](C)OC(=O)[C@@H](C(C)C)NC(=O)[C@@H](C(C)C)OC(=O)[C@H](C(C)C)NC(=O)[C@H](C)OC(=O)[C@@H](C(C)C)NC(=O)[C@@H](C(C)C)OC1=O [Valinomycin, valinomycin] | 3 | 2 |  | 1 | 3 | 2 |  |  |  |  |  |  |  |  |  |  |  | 
